# Assay results reported in article PMC3787887 (International Journal of Oncology, 2013).
# Several values for one entry are separate records, joined by “and”; a condition that tells them apart may be missing. Equal values may be shown once.
# Experiments:
# A549 cells [1] = experiment: Cellular uptake of PS, A549; assay type: cell-based, human; conditions: 1 h; for increase in the intracellular accumulation of PS by transporter inhibitor: co-incubation with 100 μM PS
# SW480 cells = experiment: Cellular uptake of PS, SW480; assay type: cell-based, human; conditions: 1 h; for enhancement of the cellular accumulation of PS by transporter inhibitor: co-incubation with 100 μM PS
# [2] = Pharmacokinetic study in mice, plasma PS metabolites by HPLC; assay type: in vivo
# [3] = Plasma and tumor drug levels at end of xenograft study; assay type: in vivo, nude mice
# A549 cells [4] = experiment: Cell growth inhibition; assay type: cell-based, human; conditions: PS 80 μM 24 h, curcumin 100 μM pretreatment
# A549 cells [5] = experiment: Apoptotic cell death analysis; assay type: cell-based, human; conditions: 20-h incubation
# A549 xenografts = experiment: A549 subcutaneous xenografts in nude mice; assay type: in vivo; conditions: for inhibition of human lung cancer xenografts (abstract, measure not named): PS 200 mg/kg, curcumin 500 mg/kg, oral gavage; for tumor volume at the end of the study: day 36, mean ± SEM; for reduction in tumor volume: end of study
# [6] = test system: human lung cancer xenografts; conditions: cited from earlier work
# lung cancer = conditions: pre-clinical models of lung cancer; cited from earlier work
# [7] = plasma metabolite after PS 200 mg/kg + curcumin 500 mg/kg in 10% Tween-80
# [8] = plasma metabolite after PS 200 mg/kg + curcumin 500 mg/kg in micelles
# [9] = plasma metabolite after single oral dose PS 200 mg/kg alone
# [10] = PS 200 mg/kg/d, curcumin 500 mg/kg/d
# [11] = vs control, PS 200 mg/kg/d, curcumin 500 mg/kg/d
# [12] = curcumin 25 μM co-added with PS
compound,measurement,setting,value
COc1ccc(CCN(C)CCCC(C#N)(c2ccc(OC)c(OC)c2)C(C)C)cc1OC (stereo not shown) [verapamil],increase in the intracellular accumulation of PS by transporter inhibitor,A549 cells [1],no effect
same,enhancement of the cellular accumulation of PS by transporter inhibitor,SW480 cells,67%
"CC1=C(CC(=O)O)c2cc(F)ccc2/C1=C\c1ccc(S(C)(=O)=O)cc1 [Sulindac sulfone, sulindac sulfone]",Cmax,[2]; [7],11.7 µM
same,Tmax,[2]; [7],4 h
same,Cmax,[2]; [8],7.7 µM
same,Tmax,[2]; [8],4 h
same,Cmax,[2]; [9],5.6 µM
same,Tmax,[2]; [9],4 h
same,"level in A549 xenografts, PS plus curcumin group vs PS alone group",[3],5 fold higher
"CCOP(=O)(OCC)OCCCCOC(=O)CC1=C(C)/C(=C/c2ccc([S+](C)[O-])cc2)c2ccc(F)cc21 (stereo not shown) [PS, Phospho-sulindac]",reduction of cell viability,A549 cells [4],30%
same,percentage of apoptotic cells,A549 cells [5]; PS 80 μM alone or with curcumin 100 μM,3.9%
same,percentage of apoptotic cells,A549 cells [5]; PS 100 μM alone or with curcumin 100 μM,5.0%
same,"inhibition of human lung cancer xenografts (abstract, measure not named)",A549 xenografts,25%
same,adverse effects on the mice during the study,A549 xenografts; [10],no apparent adverse effects
same,body weight at sacrifice,A549 xenografts; [10],23 ± 1 g
same,effect on the growth of A549 xenografts (in words),A549 xenografts; [10],did not significantly inhibit
same,tumor volume at the end of the study,A549 xenografts; [10],419±36 mm^3
same,reduction in tumor volume,A549 xenografts; [11],19.6% and 20%
same,reduction in tumor weight,"A549 xenografts; end-point, vs control, PS 200 mg/kg/d, curcumin 500 mg/kg/d",27%
same,intact PS in plasma,[2]; any of the three treatments,not detected
same,total plasma AUC0–24 h (sum of all metabolites),"[2]; single oral dose PS 200 mg/kg, curcumin 500 mg/kg",211 µM·h
same,efficacy as a single agent in the treatment of human lung cancer xenografts,[6],ineffective
CN(C)C(=O)CCSC(SCCC(=O)O)c1cccc(/C=C/c2ccc3ccc(Cl)cc3n2)c1 (stereo not shown) [MK571],increase in the intracellular accumulation of PS by transporter inhibitor,A549 cells [1],51%
same,enhancement of the cellular accumulation of PS by transporter inhibitor,SW480 cells,30%
"COc1cc(/C=C/C(=O)CC(=O)/C=C/c2ccc(O)c(OC)c2)ccc1O [curcumin, Curcumin, reference compound]",reduction of cell viability,A549 cells [4],4%
same,increase of intracellular levels of PS,A549 cells [1]; curcumin 5 μM co-added with PS,23%
same,increase of intracellular levels of PS,A549 cells [1]; [12],60%
same,increase of uptake of PS,SW480 cells; curcumin 5 μM co-added with PS,37%
same,increase of uptake of PS,SW480 cells; [12],54%
same,"inhibition of human lung cancer xenografts (abstract, measure not named)",A549 xenografts,no effect
same,adverse effects on the mice during the study,A549 xenografts; [10],no apparent adverse effects
same,body weight at sacrifice,A549 xenografts; [10],23 ± 1 g
same,effect on the growth of A549 xenografts (in words),A549 xenografts; [10],did not significantly inhibit
same,tumor volume at the end of the study,A549 xenografts; [10],599±98 mm^3
same,reduction in tumor volume,A549 xenografts; [11],no inhibition
same,efficacy as a single agent,lung cancer,< 30%
COc1cc(/C=C/C(=O)CC(=O)/C=C/c2ccc(O[C@@H]3O[C@H](C(=O)O)[C@@H](O)[C@H](O)[C@H]3O)c(OC)c2)ccc1O [curcumin glucuronide],detection in A549 xenografts,[3],"Neither curcumin, nor its glucuronide, was detected"
same,level in the plasma,[3]; curcumin and PS plus curcumin groups,minute levels
"CSc1ccc(/C=C2/C(C)=C(CC(=O)O)c3cc(F)ccc32)cc1 [Sulindac sulfide, sulindac sulfide]","level in A549 xenografts, PS plus curcumin group vs PS alone group",[3],3 fold higher
COc1ccc2c3c([nH]c2c1)[C@H](CC(C)C)N1C(=O)[C@H](CCC(=O)OC(C)(C)C)NC(=O)[C@@H]1C3 [Ko143],increase in the intracellular accumulation of PS by transporter inhibitor,A549 cells [1],no effect
"CC1=C(CC(=O)O)c2cc(F)ccc2/C1=C\c1ccc([S+](C)[O-])cc1 (stereo not shown) [Sulindac, sulindac, reference compound]",increase of Cmax vs PS alone,[2]; PS co-administered with curcumin in 10% Tween-80,70%
same,increase of Cmax vs PS alone,[2]; PS co-administered with curcumin in nanoparticles,40%
same,"level in A549 xenografts, PS plus curcumin group vs PS alone group",[3],1 fold higher
